# Results: patent US20260103471A1, “CYCLIC UREA THIAZOLYL COMPOUNDS FOR TREATMENT OF HSV” (Assembly Biosciences, Inc., priority 2022, published 2026)
# Tested on: HSV-2 G strain
# Test: HSV-2 Antiviral Assay (Vero cells, cell viability)
# Type: cell-based
# Conditions: Human alphaherpesvirus 2, Vero, 120 h, Vero cells, 160 TCID50 HSV-2 G strain, 5 days, cell viability
# Description: Vero cells were cultured in Dulbecco's Modified Eagle Medium (DMVEM) supplemented with […] and 100 units/mL penicillin and streptomycin. The cells were passaged 2-3 times per week to maintain sub-confluent densities.
# Vero cells were seeded into 96-well plates at a density of 1.0×10^4 cells per well and allowed to attach overnight. Following attachment, the media was replaced with 50 μL of infection medium (DMEM supplemented with 2% fetal bovine serum and 100 units/mL penicillin and streptomycin). A Tecan D300e digital dispenser was then used to add compounds to the culture using an 8-point 3-fold serial dilution format. The DMSO concentration was normalized to 0.5% for all treatments. Following compound addition, 50 μL of infection medium containing 160 TCID50 HSV-2 G strain was added to the cells and incubated at 37° C. for 5 days. After the incubation, 10 μL/well of WST-8 chromogenic reagent was added and the plates incubated at 37° C. for 3 hours. Following the incubation, cell viability was quantified by measuring the absorbance at 460 nm and 620 nm using a Tecan Infinite M1000 Pro plate reader.
row,SMILES,EC50 [nM]
1,"CCC[S@](=N)(=O)c1sc(N2CCCN(c3ccc(-c4cc(F)cc(F)c4F)cc3)C2=O)nc1C (single isomer, unassigned) [Compound 425]",< 100
2,"Cc1nc(N2CCCCN(c3ccc(-c4cc(F)ccc4F)cc3)C2=O)sc1[S@@](C)(=N)=O (single isomer, unassigned) [Compound 426]",< 100
3,"Cc1nc(N2CCCCN(c3ccc(-c4cc(F)ccc4F)cc3)C2=O)sc1[S@](C)(=N)=O (single isomer, unassigned) [Compound 427]",< 100
4,"Cc1nc(N2CCCCN(c3ccc(-c4cccc5ncsc45)cc3)C2=O)sc1[S@@](C)(=N)=O (single isomer, unassigned) [Compound 429]",< 100
5,"Cc1nc(N2CCCCN(c3ccc(-c4cccc5ncsc45)cc3)C2=O)sc1[S@](C)(=N)=O (single isomer, unassigned) [Compound 430]",< 100
6,"Cc1nc(N2CC3(COC3)CN(c3ccc(-c4cc(F)ccc4F)cc3)C2=O)sc1[S@@](C)(=N)=O (single isomer, unassigned) [Compound 432]",< 100
7,"Cc1nc(N2CC3(COC3)CN(c3ccc(-c4cc(F)ccc4F)cc3)C2=O)sc1[S@](C)(=N)=O (single isomer, unassigned) [Compound 433]",< 100
8,CSc1ccccc1-c1ccc(N2CCCN(c3nc(C)c(S(N)(=O)=O)s3)C2=O)cc1 [Compound 11],< 100
9,"Cc1nc(N2CCCN(c3ccc(-c4cc(F)ccc4C#CC(C)(C)O)cc3)C2=O)sc1S(N)(=O)=O [Compound 19, 2-(3-(5′-Fluoro-2′-(3-hydroxy-3-methylbut-1-yn-1-yl)-[1,1′-biphenyl]-4-yl)-2-oxotetrahydropyrimidin-1(2H)-yl)-4-methylthiazole-5-sulfonamide]",1000 to 5000
10,Cc1nc(N2CCCN(c3ccc(-c4ccccc4/C=C/C#N)cc3)C2=O)sc1S(N)(=O)=O [Compound 20],100 to 1000
11,Cc1nc(N2CCCN(c3ccc(-c4ccccc4/C=C\C#N)cc3)C2=O)sc1S(N)(=O)=O [Compound 21],100 to 1000
12,Cc1nc(N2CCCN(c3ccc(-c4ccccc4C4(C#N)CC4)cc3)C2=O)sc1S(N)(=O)=O [Compound 23],1000 to 5000
13,Cc1nc(N2CCCN(c3ccc(-c4cc(Cl)ccc4F)cc3)C2=O)sc1S(N)(=O)=O [Compound 27],< 100
14,"Cc1nc(N2CCCN(c3ccc(-c4cccc(-c5nccs5)c4)cc3)C2=O)sc1S(N)(=O)=O [Compound 30, 4-methyl-2-(2-oxo-3-(3′-(thiazol-2-yl)-[1,1′-biphenyl]-4-yl)tetrahydropyrimidin-1(2H)-yl)thiazole-5-sulfonamide]",< 100
15,Cc1nc(N2CCCN(c3ccc(-c4cccc(-c5cncs5)c4)cc3)C2=O)sc1S(N)(=O)=O [Compound 31],< 100
16,Cc1nc(N2CCCN(c3ccc(-c4cccc(-c5ccnn5C)c4)cc3)C2=O)sc1S(N)(=O)=O [Compound 32],100 to 1000
17,Cc1nc(N2CCCN(c3ccc(-c4nccc(Cl)c4F)cc3)C2=O)sc1S(N)(=O)=O [Compound 37],100 to 1000
18,Cc1nc(N2CCCN(c3ccc(-c4cc(Cl)c(F)cn4)cc3)C2=O)sc1S(N)(=O)=O [Compound 38],1000 to 5000
19,Cc1nc(N2CCCN(c3ccc(-c4scnc4C#N)cc3)C2=O)sc1S(N)(=O)=O [Compound 47],100 to 1000
20,Cc1nc(N2CCCN(c3ccc(-c4nc(C#N)cs4)cc3)C2=O)sc1S(N)(=O)=O [Compound 48],< 100
21,Cc1nc(N2CCCN(c3ccc(-c4cncs4)cc3)C2=O)sc1S(N)(=O)=O [Compound 49],100 to 1000

row,SMILES,EC50 [nM]
1,Cc1ncsc1-c1ccc(N2CCCN(c3nc(C)c(S(N)(=O)=O)s3)C2=O)cc1 [Compound 50],100 to 1000
2,Cc1nc(N2CCCN(c3ccc(-c4cccc5c4cnn5S(C)(=O)=O)cc3)C2=O)sc1S(N)(=O)=O [Compound 57],1000 to 5000
3,COc1ccc(-c2ccc(N3CCCN(c4nc(C)c(S(N)(=O)=O)s4)C3=O)cc2)c2cnn(C)c12 [Compound 58],< 100
4,Cc1nc(N2CCCN(c3ccc(-c4cccn5cncc45)cc3)C2=O)sc1S(N)(=O)=O [Compound 65],100 to 1000
5,Cc1nc(N2CCCN(c3ccc(-c4cccc5nc(N)sc45)cc3)C2=O)sc1S(N)(=O)=O [Compound 69],< 100
6,Cc1nc(N2CCCN(c3ccc(-c4c(F)ccc5ncsc45)cc3)C2=O)sc1S(N)(=O)=O [Compound 70],< 100
7,Cc1nc2c(-c3ccc(N4CCCN(c5nc(C)c(S(N)(=O)=O)s5)C4=O)cc3)cccc2s1 [Compound 72],< 100
8,Cc1nc(N2CCCN(c3ccc(-c4cccc5c4OCO5)cc3)C2=O)sc1S(N)(=O)=O [Compound 81],100 to 1000
9,Cc1nc(N2CCCN(c3ccc(-c4nn(C)c5ccccc45)cc3)C2=O)sc1S(N)(=O)=O [Compound 92],< 100
10,Cc1nc(N2CCCN(c3ccc(-n4cnc5ccccc54)cc3)C2=O)sc1S(N)(=O)=O [Compound 94],1000 to 5000
11,"Cc1nc(N2C(=O)N(c3ccc(-c4cc(F)ccc4F)cc3)CCC2C)sc1S(N)(=O)=O (stereo not shown) [Compound 107, 2-(3-(2′,5′-Difluoro-[1,1′-biphenyl]-4-yl)-6-methyl-2-oxotetrahydropyrimidin-1(2H)-yl)-4-methylthiazole-5-sulfonamide]",< 100
12,Cc1nc(N2CC3(CC3)CN(c3ccc(-c4ncccc4F)cc3)C2=O)sc1S(N)(=O)=O [Compound 112],< 100
13,Cc1csc(-c2ccc(N3CC4(CC4)CN(c4nc(C)c(S(N)(=O)=O)s4)C3=O)cc2)n1 [Compound 114],< 100
14,Cc1nc(N2CCCN(c3ccc(-c4ccccc4F)cc3)C2=O)sc1S(C)(=N)=O (stereo not shown) [Compound 142],100 to 1000
15,CN=S(C)(=O)c1sc(N2CCCN(c3ccc(-c4ccccc4F)cc3)C2=O)nc1C (stereo not shown) [Compound 145],100 to 1000
16,CN=S(C)(=O)c1sc(N2CCCN(c3ccc(-c4cc(F)ccc4F)cc3)C2=O)nc1C (stereo not shown) [Compound 151],100 to 1000
17,Cc1nc(N2CCCCN(c3ccc(-c4cc(F)ccc4F)cc3)C2=O)sc1S(C)(=N)=O (stereo not shown) [Compound 154],< 100
18,Cc1cccc(-c2ccc(N3CCCN(c4nc(C)c(S(N)(=O)=O)s4)C3=O)cc2)n1 [Compound 184],< 100
19,Cc1nc(N2CCCN(c3ccc(-c4cc(Cl)ccn4)cc3)C2=O)sc1S(N)(=O)=O [Compound 185],< 100
20,Cc1nc(N2CCCN(c3ccc(-c4ccc(F)c(Cl)c4)cc3)C2=O)sc1S(N)(=O)=O [Compound 186],100 to 1000
21,Cc1nc(N2CCCN(c3ccc(-c4ccc(F)cc4F)cc3)C2=O)sc1S(N)(=O)=O [Compound 187],100 to 1000

row,SMILES,EC50 [nM]
1,Cc1nc(N2CCCN(c3ccc(-c4cc(F)c(F)c(F)c4)cc3)C2=O)sc1S(N)(=O)=O [Compound 188],100 to 1000
2,Cc1nc(N2CCCN(c3ccc(-c4ccc(F)cc4)cc3)C2=O)sc1S(N)(=O)=O [Compound 189],100 to 1000
3,Cc1nc(N2CCCN(c3ccc(-c4ccc(F)c(F)c4)cc3)C2=O)sc1S(N)(=O)=O [Compound 190],100 to 1000
4,Cc1nc(N2CCCN(c3ccc(-c4cccc(Cl)c4)cc3)C2=O)sc1S(N)(=O)=O [Compound 191],< 100
5,Cc1nc(N2CCCN(c3ccc(-c4cc(F)cc(/C=C/C#N)c4)cc3)C2=O)sc1S(N)(=O)=O [Compound 192],< 100
6,Cc1cccc(-c2ccc(N3CCCN(c4nc(C)c(S(N)(=O)=O)s4)C3=O)cc2)c1C [Compound 195],< 100
7,Cc1nc(N2CCCN(c3ccc(-c4ccccc4C(F)(F)F)cc3)C2=O)sc1S(N)(=O)=O [Compound 196],< 100
8,Cc1nc(N2CCCN(c3ccc(-c4ccccc4C4COC4)cc3)C2=O)sc1S(N)(=O)=O [Compound 197],1000 to 5000
9,Cc1nc(N2CCCN(c3ccc(-c4cccc(C5(C#N)CC5)c4)cc3)C2=O)sc1S(N)(=O)=O [Compound 198],< 100
10,Cc1nc(N2CCCN(c3ccc(-c4cccc(C5CCC5)c4)cc3)C2=O)sc1S(N)(=O)=O [Compound 199],100 to 1000
11,Cc1nc(N2CCCN(c3ccc(-c4ccccc4OC4CC4)cc3)C2=O)sc1S(N)(=O)=O [Compound 200],100 to 1000
12,Cc1nc(N2CCCN(c3ccc(-c4cccc(S(C)(=O)=O)c4)cc3)C2=O)sc1S(N)(=O)=O [Compound 201],1000 to 5000
13,Cc1nc(N2CCCN(c3ccc(-c4cc(C#N)ccc4F)cc3)C2=O)sc1S(N)(=O)=O [Compound 202],< 100
14,COc1ccc(F)cc1-c1ccc(N2CCCN(c3nc(C)c(S(N)(=O)=O)s3)C2=O)cc1 [Compound 203],< 100
15,Cc1nc(N2CCCN(c3ccc(-c4cc(C(C)(C)C)ccc4F)cc3)C2=O)sc1S(N)(=O)=O [Compound 204],1000 to 5000
16,Cc1nc(N2CCCN(c3ccc(-c4cc(C5CC5)ccc4F)cc3)C2=O)sc1S(N)(=O)=O [Compound 205],100 to 1000
17,Cc1nc(N2CCCN(c3ccc(-c4cc(C(F)F)ccc4F)cc3)C2=O)sc1S(N)(=O)=O [Compound 206],< 100
18,Cc1nc(N2CCCN(c3ccc(-c4cc(F)ccc4-c4cnn(C)c4)cc3)C2=O)sc1S(N)(=O)=O [Compound 207],100 to 1000
19,Cc1nc(N2CCCN(c3ccc(-c4cc(C5(C#N)CC5)ccc4F)cc3)C2=O)sc1S(N)(=O)=O [Compound 208],< 100
20,Cc1nc(N2CCCN(c3ccc(-c4cc(Cl)cc(Cl)c4F)cc3)C2=O)sc1S(N)(=O)=O [Compound 213],< 100
21,Cc1nc(N2CCCN(c3ccc(-c4cc(Cl)cc(F)c4F)cc3)C2=O)sc1S(N)(=O)=O [Compound 214],< 100

# Same assay, conditions: Vero cells, 160 TCID50 HSV-2 G strain, 5 days, cell viability
row,SMILES,EC50 [nM]
1,Cc1nc(N2CCCN(c3ccc(-c4cccc5ccnn45)cc3)C2=O)sc1S(N)(=O)=O [Compound 64],100 to 1000
